Source: US20250264484A1, “METHODS FOR IDENTIFYING AND TREATING DISEASES” (Genzyme Corporation, priority 2022, published 2025)

How the values were obtained:
GCase [1] = target: T1, GCase (Mus musculus, UniProt P17439); assay: CBE dose titration in WT mice: GCase activity (4MU hydrolysis assay); assay type: in vivo; settings: cortex and liver, 24 hours, 0.3-100 mg/kg CBE
T1 construct: GCase activity remaining 24 hours after administration of CBE was measured; from tissue; host or cells: cortex and liver of wild-type mice (Charles River Laboratories or Jackson Labs)
T1 sequence (P17439 20-515): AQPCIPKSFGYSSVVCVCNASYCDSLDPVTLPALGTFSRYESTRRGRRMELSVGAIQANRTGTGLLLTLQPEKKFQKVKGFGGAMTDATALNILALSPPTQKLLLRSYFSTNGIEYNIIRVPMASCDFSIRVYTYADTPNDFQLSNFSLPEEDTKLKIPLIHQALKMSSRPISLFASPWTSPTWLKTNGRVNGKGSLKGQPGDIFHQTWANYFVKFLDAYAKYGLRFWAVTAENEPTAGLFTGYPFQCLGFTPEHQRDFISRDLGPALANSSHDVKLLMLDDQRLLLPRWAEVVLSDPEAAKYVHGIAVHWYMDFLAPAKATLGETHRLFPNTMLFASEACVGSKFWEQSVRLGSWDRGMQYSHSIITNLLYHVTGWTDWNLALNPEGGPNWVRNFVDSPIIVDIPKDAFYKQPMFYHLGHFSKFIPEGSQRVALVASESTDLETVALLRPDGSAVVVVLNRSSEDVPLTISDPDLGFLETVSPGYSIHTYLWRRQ
Protocol: N=4 per group (8 for untreated and 100 mg/kg plasma). […] Error bars show SEM.

Lyso-GL1 levels = assay: CBE dose titration in WT mice: lyso-GL1 accumulation; assay type: in vivo; settings: cortex, liver and plasma, 24 hours after CBE
Protocol: Lyso-GL1 was detected in cortex (FIG. 2A), liver (FIG. 2B), and plasma (FIG. 2C). N=4 per group (8 for untreated and 100 mg/kg plasma). Results for lyso-GL1 are μg/g wet tissue. […] Error bars show SEM.
A dose response to CBE was performed in wild-type (WT) mice (Charles River Laboratories or Jackson Labs). Concentrations between 0.3 mg/kg and 100 mg/kg of CBE were investigated. GCase activity remaining 24 hours after administration of CBE was measured using a 4-methylumbelliferone (4MU) hydrolysis assay. Briefly, cell lysates from different sample types were diluted into 0.1 M sodium acetate buffer, pH 4.5 containing 10 mM of synthetic substrate 4-methylumbelliferyl-β-D-glucopyranoside and incubated at 37° C. for 1 hour. The reaction was terminated by adding 0.5 volume of 1 M glycine buffer, pH 12.5. The fluorescence of the reaction was measured using a Spectramax fluorimeter (Ex365/Em445; Molecular Devices, Sunnyvale, CA, USA). A standard curve was generated using Cerezyme® (imiglucerase).

[2] = tested on: GL1 and lyso-GL1 accumulation; assay: CBE timecourse of lipid flux in Gba D409V/D409V, D409V/+ and +/+ mice; assay type: in vivo; settings: single intraperitoneal CBE injection
Excerpt: For each plot, the top line (with squares) is the homozygous D409V mice, the middle line (with triangles pointing upwards) is the heterozygous mice, and the bottom line (triangles pointing downwards) is the wild-type mice. N=10 per group. Data are shown as mean±SEM.
It was investigated whether substrate accumulation could allow for discrimination between mice harboring different copy numbers of mutations in GBA1. Three mouse models were investigated: Gba^D409V/D409V, Gba^D409V/+, and Gba^+/+, which are homozygous for a loss of function D409V mutation in GBA1, heterozygous for that mutation, or WT for GBA1, respectively. The GCase substrate, glucosylceramide (GL1) was investigated in addition to glucosylsphingosine (lyso-GL1). Mice were administered a single dose of CBE and sacrificed after 3, 6, 24, 48, or 72 hours. Substrate accumulation and dissipation was measured over time.

[3] = tested on: lyso-GL1 and GL-1 accumulation; assay: CBE timecourse of lipid flux in wild-type mouse strains; assay type: in vivo; settings: C57BL/6, BALB/cJ and FVB mice after CBE challenge
Protocol: GSL levels were measured in cortex (FIG. 4A), liver (FIG. 4B), and plasma (FIG. 4C). […] Data are shown as mean±SD.
Three different wild-type mouse strains (C57BL/6J, BALB/cJ, and FVB-Charles River Laboratories or Jackson Labs) were evaluated for GSL accumulation and restoration after CBE challenge. […] The CBE challenge time course was performed in these three different strains, measuring lyso-GL1 and GL-1 accumulation at 24, 48, and 72 hours after administration.

[4] = tested on: SHSY-5Y neuroblastoma cells; assay: Lipid response of SHSY-5Y neuroblastoma cells to CBE incubation; assay type: cell-based, human; settings: 100 μM CBE for 24 hours
Excerpt: In each case, the lyso-GL1 levels without treatment are very low (left-hand bar, in black). Error bars show SD, and data are presented in relative (arbitrary) units, “AU”, which are normalized for cell number.
First, the response of human SHSY-5Y neuroblastoma cells to CBE was studied. Cells were either used without further changes (wild-type) or were modified to reduce or increase Gba activity (knock-down and over-expressed, respectively). The modification was effected by stable transfection with a plasmid expressing an siRNA targeting GBA (KD) or a plasmid constitutively overexpressing GBA (OE). Human SHSY-5Y neuroblastoma cells (Sigma) were incubated with 100 μM CBE (Toronto Research Chemicals) for 24 hours. Enzyme activity and lipid levels were measured at −24 hours (before CBE incubation), and at 0, 24, and 48 hours after CBE removal. […] A marked increase in enzyme activity was observed between the knock-down and wild-type cells, and between the wild-type and over-expressed cells.

[5] = tested on: human peripheral blood mononuclear cells (PBMCs); assay: CBE challenge in human PBMCs; assay type: cell-based
Protocol: PBMCs were obtained from blood samples (Stem Cell Technologies, catalog number 70025, lot number 2105417005, Donor ID CE0006419) using standard procedures. 25,000 cells were added to individual wells of a multi-well plate and allowed to acclimate for 24 hours before they were treated with 100 μM CBE for 24 hours. Culture medium was removed and replaced with fresh medium (without CBE), and lipids were extracted from the cells at time intervals of 0, 2, 4, 8, 16 and 24 hours. GL1 and lyso-GL1 levels were measured, as were levels of phosphatidylcholine (PC).

GCase [6] = target: T2, GCase (Homo sapiens, UniProt P04062); settings: read-out: IC50 against GCase; cited from earlier work
T2 sequence (P04062 40-536): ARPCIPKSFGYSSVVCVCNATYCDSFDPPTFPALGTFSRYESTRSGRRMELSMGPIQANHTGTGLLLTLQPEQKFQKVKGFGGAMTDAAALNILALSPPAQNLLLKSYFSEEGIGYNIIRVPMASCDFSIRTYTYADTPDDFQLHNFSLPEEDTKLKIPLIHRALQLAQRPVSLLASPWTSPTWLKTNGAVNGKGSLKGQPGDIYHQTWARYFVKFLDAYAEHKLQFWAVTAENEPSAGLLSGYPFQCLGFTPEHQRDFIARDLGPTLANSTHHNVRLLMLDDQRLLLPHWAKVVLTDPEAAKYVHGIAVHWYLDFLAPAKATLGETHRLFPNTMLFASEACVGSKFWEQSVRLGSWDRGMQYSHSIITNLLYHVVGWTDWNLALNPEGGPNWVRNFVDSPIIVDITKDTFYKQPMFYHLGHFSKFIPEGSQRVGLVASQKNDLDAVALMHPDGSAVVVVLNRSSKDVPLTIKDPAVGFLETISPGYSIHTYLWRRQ

[7] = target: T3, non-lysosomal glucosylceramidase (Homo sapiens, UniProt Q9HCG7); settings: range given jointly for three glycosidases; read-out: IC50 against non-lysosomal glucosylceramidase; cited from earlier work
T3 sequence (Q9HCG7 1-927): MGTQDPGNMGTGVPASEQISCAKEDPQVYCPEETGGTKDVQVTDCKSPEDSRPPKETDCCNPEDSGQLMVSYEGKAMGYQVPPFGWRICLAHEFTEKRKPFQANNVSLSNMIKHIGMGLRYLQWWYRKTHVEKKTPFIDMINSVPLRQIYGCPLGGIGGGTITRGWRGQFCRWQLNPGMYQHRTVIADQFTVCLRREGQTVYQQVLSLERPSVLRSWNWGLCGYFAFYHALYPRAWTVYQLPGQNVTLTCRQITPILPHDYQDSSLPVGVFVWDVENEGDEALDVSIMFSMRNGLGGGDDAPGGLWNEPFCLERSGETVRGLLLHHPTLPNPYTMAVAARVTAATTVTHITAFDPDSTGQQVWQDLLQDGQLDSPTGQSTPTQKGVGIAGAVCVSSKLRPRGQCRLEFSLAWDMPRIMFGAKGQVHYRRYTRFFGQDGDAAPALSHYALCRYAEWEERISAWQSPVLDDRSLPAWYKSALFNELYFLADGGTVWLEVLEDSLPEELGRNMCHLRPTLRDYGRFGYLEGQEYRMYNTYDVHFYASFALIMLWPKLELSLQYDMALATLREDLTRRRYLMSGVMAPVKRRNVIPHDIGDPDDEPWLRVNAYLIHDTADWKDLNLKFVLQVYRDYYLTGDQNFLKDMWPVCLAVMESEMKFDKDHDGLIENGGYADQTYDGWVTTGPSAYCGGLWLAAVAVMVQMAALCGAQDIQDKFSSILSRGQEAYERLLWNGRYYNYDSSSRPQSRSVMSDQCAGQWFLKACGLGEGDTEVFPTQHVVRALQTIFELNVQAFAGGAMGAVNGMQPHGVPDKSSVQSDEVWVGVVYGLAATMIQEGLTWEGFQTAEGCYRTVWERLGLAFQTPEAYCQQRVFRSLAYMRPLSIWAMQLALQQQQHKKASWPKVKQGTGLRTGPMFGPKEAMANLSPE

β-glucuronidase = target: T4, β-glucuronidase (Homo sapiens, UniProt P08236); settings: range given jointly for three glycosidases; read-out: IC50 against β-glucuronidase; cited from earlier work
T4 sequence (P08236 23-651): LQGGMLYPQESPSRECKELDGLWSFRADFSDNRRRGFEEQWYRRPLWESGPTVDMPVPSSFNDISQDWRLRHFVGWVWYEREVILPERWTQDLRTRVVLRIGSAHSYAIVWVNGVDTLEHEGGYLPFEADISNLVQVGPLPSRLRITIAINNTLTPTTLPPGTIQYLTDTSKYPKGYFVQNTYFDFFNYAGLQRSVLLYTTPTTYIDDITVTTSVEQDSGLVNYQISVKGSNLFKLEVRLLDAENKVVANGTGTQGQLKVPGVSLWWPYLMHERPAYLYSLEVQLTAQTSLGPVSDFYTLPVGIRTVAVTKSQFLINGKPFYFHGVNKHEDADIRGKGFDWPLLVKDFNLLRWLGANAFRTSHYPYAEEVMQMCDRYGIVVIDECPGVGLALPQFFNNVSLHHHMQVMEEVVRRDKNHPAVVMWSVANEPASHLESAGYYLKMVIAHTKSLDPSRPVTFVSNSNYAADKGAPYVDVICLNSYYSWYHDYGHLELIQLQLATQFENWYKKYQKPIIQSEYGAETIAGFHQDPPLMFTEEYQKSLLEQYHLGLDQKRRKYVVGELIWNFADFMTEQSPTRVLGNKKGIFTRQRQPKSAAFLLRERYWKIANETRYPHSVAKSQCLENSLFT

α-glucosidases = settings: range given jointly for three glycosidases; read-out: IC50 against α-glucosidases; cited from earlier work
[8] = tested on: SHSY-5Y neuroblastoma cells; settings: wild-type cells

Structure (SMILES)	GCase activity remaining after administration of CBE (GCase [1])	Lyso-GL1 levels (Lyso-GL1 levels)	time of peak substrate accumulation [2] [h]	time of peak glycosphingolipid levels [3] [h]	GL1 and lyso-GL1 accumulation upon CBE treatment ([4]; KD, WT and OE SHSY-5Y cells)	total GL1 levels after treatment ([4]; wild-type SHSY-5Y cells)	increase of GL1 levels after CBE treatment ([5]; 100 μM CBE for 24 hours)	phosphatidylcholine (PC) levels ([5]; 100 μM CBE for 24 hours)	GL1 levels after CBE treatment ([5]; 100 μM CBE for 24 hours, baseline about 2 ng/ml)	lyso-GL1 levels after CBE treatment ([5]; 100 μM CBE for 24 hours, from nearly undetectable levels)	time for GL1 and lyso-GL1 levels to normalize after treatment ([5]; normalized to PC levels) [h]	IC50 (GCase [6]) [µM]	IC50 [7] [µM]	IC50 (β-glucuronidase) [µM]	IC50 (α-glucosidases) [µM]	increase of response (dynamic range) on incubation with sodium taurocholate [8] [factor]
O[C@H]1[C@H](O)[C@@H](O)[C@@H]2O[C@@H]2[C@@H]1O [CBE, conduritol-β epoxide]	dose-dependent reduction in enzyme activity	increased with increasing CBE dose beyond 30 mg/kg	24 to 48	24	inversely proportional to the level of GBA1 expression	No significant difference	about 6 fold	largely unaffected	about 12 ng/ml	about 0.08 ng/ml	16	~0.3	200 to 2000	200 to 2000	200 to 2000	–
C[C@H](CCC(=O)NCCS(=O)(=O)O)[C@H]1CC[C@H]2[C@@H]3[C@H](O)C[C@@H]4C[C@H](O)CC[C@]4(C)[C@H]3C[C@H](O)[C@]12C [sodium taurocholate]	–	–	–	–	–	–	–	–	–	–	–	–	–	–	–	~10
